15 compounds from ChEMBL document CHEMBL1255543, “On resin amino acid side chain attachment strategy for the head to tail synthesis of new glutamine containing gramicidin-S analogs and their antimicrobial activity” (2010) can be followed below.

The MIC is the least concentration at which growth counts as inhibited.

Common to all, as to assay type: functional
Test [1] concerns Streptococcus agalactiae. As to the kind of experiment: Antimicrobial activity against Streptococcus agalactiae COH1 by broth microdilution assay. Background: In broth dilution the organism is exposed to a series of concentrations in liquid medium.
The test system of test [2] is Enterococcus faecalis. The test is described as follows: Antimicrobial activity against Enterococcus faecalis ATCC 51299 by broth microdilution assay.
For test [3], the system named is Staphylococcus aureus. The test is described as follows: Antimicrobial activity against methicillin-resistant Staphylococcus aureus ATCC 33591 by broth microdilution assay.
The subject of test [4] is Escherichia coli. The test is described as follows: Antimicrobial activity against Escherichia coli ATCC 25922 by broth microdilution assay.
Test [5] relates to Pseudomonas aeruginosa. The test is described as follows: Antimicrobial activity against Pseudomonas aeruginosa ATCC 27853 by broth microdilution assay.
The test system of test [6] is Streptococcus pyogenes. The test is described as follows: Antimicrobial activity against Streptococcus pyogenes by broth microdilution assay.
Setting [7] is: Streptococcus pyogenes, read-out: MIC.

SMILES strings stand for the structures. ≈ marks a conversion by molar mass, not a printed value. Peptide text beside a SMILES is read from it.

Turning to `CC(C)C[C@@H]1NC(=O)[C@H](CCC(N)=O)NC(=O)[C@H](C(C)C)NC(=O)[C@@H]2CCCN2C(=O)[C@@H](c2ccccc2)NC(=O)[C@H](CC(C)C)NC(=O)[C@H](CCC(N)=O)NC(=O)[C@H](C(C)C)NC(=O)[C@@H]2CCCN2C(=O)[C@@H](c2ccccc2)NC1=O`, the minimal inhibitory concentration (MIC) is greater than 100 µg/mL in test [1]; greater than 100 µg/mL in test [2]; greater than 100 µg/mL in test [3]; greater than 100 µg/mL in test [4]; greater than 100 µg/mL in test [5]; 10 µg/mL (≈ 8.76 µM) in test [6] (setting [7]).

Regarding `CC(C)C[C@@H]1NC(=O)[C@@H]2CCCN2C(=O)[C@H](Cc2ccccc2)NC(=O)[C@H](C(C)C)NC(=O)[C@H](CCC(N)=O)NC(=O)[C@H](C(C)C)NC(=O)[C@@H]2CCCN2C(=O)[C@H](Cc2ccccc2)NC(=O)[C@H](C(C)C)NC(=O)[C@H](CCC(N)=O)NC1=O` (stereo in doubt; form 2), in test [6], the MIC was found to be 10 µg/mL (≈ 8.65 µM).

On to `CC(C)C[C@@H]1NC(=O)[C@H](CCC(N)=O)NC(=O)[C@H](C(C)C)NC(=O)[C@@H]2CCCN2C(=O)[C@H](Cc2ccccc2)NC(=O)[C@H](C(C)C)NC(=O)[C@H](CCC(N)=O)NC(=O)[C@H](C(C)C)NC(=O)[C@@H]2CCCN2C(=O)[C@H](Cc2ccccc2)NC1=O` (cyclo(FPVQLFPVQV)), for which the minimum inhibitory concentration (MIC) was greater than 100 µg/mL in test [1]; greater than 100 µg/mL in test [2]; greater than 100 µg/mL in test [3]; greater than 100 µg/mL in test [4]; greater than 100 µg/mL in test [5]; 10 µg/mL (≈ 8.65 µM) in test [6] (setting [7]).

In the case of `CC(C)C[C@@H]1NC(=O)[C@H](CCC(N)=O)NC(=O)[C@H](CC(C)C)NC(=O)[C@@H]2CCCN2C(=O)[C@H](Cc2ccccc2)NC(=O)[C@H](CC(C)C)NC(=O)[C@H](CCC(N)=O)NC(=O)[C@H](CC(C)C)NC(=O)[C@@H]2CCCN2C(=O)[C@H](Cc2ccccc2)NC1=O` (cyclo(FPLQLFPLQL)), the MIC was greater than 100 µg/mL in test [1]; greater than 100 µg/mL in test [2]; greater than 100 µg/mL in test [3]; greater than 100 µg/mL in test [4]; greater than 100 µg/mL in test [5]; 10 µg/mL (≈ 8.35 µM) in test [6] (setting [7]).

Consider `CC(C)C[C@@H]1NC(=O)[C@H](CCC(N)=O)NC(=O)[C@H](CC(C)C)NC(=O)[C@@H]2CCCN2C(=O)[C@H](Cc2ccccc2)NC(=O)[C@H](C(C)C)NC(=O)[C@H](CCC(N)=O)NC(=O)[C@H](C(C)C)NC(=O)[C@@H]2CCCN2C(=O)[C@H](Cc2ccccc2)NC1=O` (cyclo(FPLQLFPVQV)), for which the MIC in test [1] was greater than 100 µg/mL; in test [2], greater than 100 µg/mL; in test [3], greater than 100 µg/mL; in test [4] it was greater than 100 µg/mL; in test [5], greater than 100 µg/mL; in test [6] (setting [7]), 10 µg/mL (≈ 8.55 µM).

For `CC(C)[C@@H]1NC(=O)[C@H](CCC(N)=O)NC(=O)[C@H](C(C)C)NC(=O)[C@@H]2CCCN2C(=O)[C@H](Cc2ccccc2)NC(=O)[C@H](C(C)C)NC(=O)[C@H](CCC(N)=O)NC(=O)[C@H](C(C)C)NC(=O)[C@@H]2CCCN2C(=O)[C@H](Cc2ccccc2)NC1=O` (cyclo(FPVQVFPVQV)), the MIC in test [1], in test [2], in test [3], in test [4], in test [5] and in test [6] (setting [7]) was greater than 100 µg/mL throughout.

Turning to `CC(C)C[C@@H]1NC(=O)[C@H](CCC(N)=O)NC(=O)[C@H](CC(C)C)NC(=O)[C@@H]2CCCN2C(=O)[C@H](Cc2ccccc2)NC(=O)[C@H](C(C)C)NC(=O)[C@H](CCC(N)=O)NC(=O)[C@H](CC(C)C)NC(=O)[C@@H]2CCCN2C(=O)[C@H](Cc2ccccc2)NC1=O` (cyclo(FPLQLFPLQV)), the minimal inhibitory concentration (MIC) in test [1] is 10 µg/mL (≈ 8.45 µM); in test [2], greater than 100 µg/mL; in test [3] it was greater than 100 µg/mL; in test [4], greater than 100 µg/mL; in test [5], greater than 100 µg/mL; in test [6] (setting [7]) it was 10 µg/mL (≈ 8.45 µM).

As for `CC(C)C[C@@H]1NC(=O)[C@H](CCC(N)=O)NC(=O)[C@H](C(C)C)NC(=O)[C@@H]2CCCN2C(=O)[C@H](Cc2ccccc2)NC(=O)[C@H](C(C)C)NC(=O)[C@H](CCC(N)=O)NC(=O)[C@H](CC(C)C)NC(=O)[C@@H]2CCCN2C(=O)[C@H](Cc2ccccc2)NC1=O` (cyclo(FPLQVFPVQL)), the MIC in test [1] was greater than 100 µg/mL; in test [2] it was greater than 100 µg/mL; in test [3], greater than 100 µg/mL; in test [4], greater than 100 µg/mL; in test [5], greater than 100 µg/mL; in test [6] (setting [7]) it was 10 µg/mL (≈ 8.55 µM).

Turning to `CC(C)C[C@@H]1NC(=O)[C@H](CCC(N)=O)NC(=O)[C@H](C(C)C)NC(=O)[C@@H]2CCCN2C(=O)[C@@H](Cc2cccs2)NC(=O)[C@H](CC(C)C)NC(=O)[C@H](CCC(N)=O)NC(=O)[C@H](C(C)C)NC(=O)[C@@H]2CCCN2C(=O)[C@@H](Cc2cccs2)NC1=O`, the MIC in test [1], in test [2], in test [3], in test [4], in test [5] and in test [6] (setting [7]) was greater than 100 µg/mL each time.

Turning to `CC(C)C[C@@H]1NC(=O)[C@H](CCC(N)=O)NC(=O)[C@H](C(C)C)NC(=O)[C@@H]2CCCN2C(=O)[C@H](Cc2ccccc2)NC(=O)[C@H](CC(C)C)NC(=O)[C@H](CCC(N)=O)NC(=O)[C@H](C(C)C)NC(=O)[C@@H]2CCCN2C(=O)[C@H](Cc2ccccc2)NC1=O` (cyclo(FPVQLFPVQL)), the minimal inhibitory concentration (MIC) in test [1] is greater than 100 µg/mL; in test [2], greater than 100 µg/mL; in test [3], greater than 100 µg/mL; in test [4], greater than 100 µg/mL; in test [5] it was greater than 100 µg/mL; in test [6] (setting [7]) it was 10 µg/mL (≈ 8.55 µM).

With `CC(C)C[C@@H]1NC(=O)[C@H](CCC(N)=O)NC(=O)[C@H](C(C)C)NC(=O)[C@@H]2CCCN2C(=O)[C@@H](Cc2ccc(I)cc2)NC(=O)[C@H](CC(C)C)NC(=O)[C@H](CCC(N)=O)NC(=O)[C@H](C(C)C)NC(=O)[C@@H]2CCCN2C(=O)[C@@H](Cc2ccc(I)cc2)NC1=O`, the MIC in test [1] was greater than 100 µg/mL; in test [2], greater than 100 µg/mL; in test [3], greater than 100 µg/mL; in test [4] it was greater than 100 µg/mL; in test [5], greater than 100 µg/mL; in test [6] (setting [7]), 10 µg/mL (≈ 7.04 µM).

With `CC(C)C[C@@H]1NC(=O)[C@H](CCC(N)=O)NC(=O)[C@H](C(C)C)NC(=O)[C@@H]2CCCN2C(=O)[C@@H](Cc2c[nH]c3ccccc23)NC(=O)[C@H](CC(C)C)NC(=O)[C@H](CCC(N)=O)NC(=O)[C@H](C(C)C)NC(=O)[C@@H]2CCCN2C(=O)[C@@H](Cc2c[nH]c3ccccc23)NC1=O`, the minimum inhibitory concentration (MIC) in test [1], in test [2], in test [3], in test [4], in test [5] and in test [6] (setting [7]) was greater than 100 µg/mL in each case.

Regarding `CC(C)C[C@@H]1NC(=O)[C@@H]2CCCN2C(=O)[C@H](Cc2ccccc2)NC(=O)[C@H](C(C)C)NC(=O)[C@H](CCC(N)=O)NC(=O)[C@H](C(C)C)NC(=O)[C@@H]2CCCN2C(=O)[C@H](Cc2ccccc2)NC(=O)[C@H](C(C)C)NC(=O)[C@H](CCC(N)=O)NC1=O` (stereo in doubt; form 1), the MIC in test [1], in test [2], in test [3], in test [4], in test [5] and in test [6] was greater than 100 µg/mL throughout.

On to `CC(C)C[C@@H]1NC(=O)[C@H](CCC(N)=O)NC(=O)[C@H](C(C)C)NC(=O)[C@@H]2CCCN2C(=O)[C@@H](Cc2ccc(O)cc2)NC(=O)[C@H](CC(C)C)NC(=O)[C@H](CCC(N)=O)NC(=O)[C@H](C(C)C)NC(=O)[C@@H]2CCCN2C(=O)[C@@H](Cc2ccc(O)cc2)NC1=O`, for which the MIC in test [1], in test [2], in test [3], in test [4], in test [5] and in test [6] (setting [7]) was greater than 100 µg/mL throughout.

On to `CC(C)C[C@@H]1NC(=O)[C@H](CCC(N)=O)NC(=O)[C@H](C(C)C)NC(=O)[C@@H]2CCCN2C(=O)[C@@H](Cc2ccc(F)cc2)NC(=O)[C@H](CC(C)C)NC(=O)[C@H](CCC(N)=O)NC(=O)[C@H](C(C)C)NC(=O)[C@@H]2CCCN2C(=O)[C@@H](Cc2ccc(F)cc2)NC1=O`, for which the minimal inhibitory concentration (MIC) in test [1] was greater than 100 µg/mL; in test [2] it was greater than 100 µg/mL; in test [3], greater than 100 µg/mL; in test [4], greater than 100 µg/mL; in test [5], greater than 100 µg/mL; in test [6] (setting [7]) it was 10 µg/mL (≈ 8.3 µM).
